Measured values: the NIST ThermoML archive (doi:10.1007/s10765-006-0119-1)

Details: 101.33 kPa, Liquid, Oscillating Cup

O=[N+]([O-])[O-].[Na+] [sodium nitrate]
Details	viscosity [mPa·s]
590.3 K	2.854
599.3 K	2.74
600 K	2.658
600.3 K	2.638
613.2 K	2.437
640.9 K	2.155
653.6 K	2.05
673.2 K	1.811
676.8 K	1.768
691.9 K	1.719
709.7 K	1.627
714.6 K	1.537
732.4 K	1.564
752.1 K	1.43
